Here are results for two molecules from patent publication US11447498B2, “Fused tetracyclic compounds and uses thereof in medicine” (SUNSHINE LAKE PHARMA CO., LTD., priority 2018, dated 2022).

One data set concerns HBsAg secretion. Nature of the data set: Inhibition experiment on HBsAg secretion (HepG 2,2,15 cells, ELISA). In kind it is cell-based. The settings on record: Hepatitis B virus, HepG2.2.15, read-out: HBsAg IC50. The source says: (§1) The chromosomal integration of HepG2,2,15 cells (SELLS, PNAS, 1987 and SELLS, JV, 1988) has a complete HBV genome and stably expresses viral RNA and viral proteins. HepG2,2,15 cells are capable of secreting mature hepatitis B virus particles and HBsAg into the culture medium. Virus particles DNA and HBsAg secreted by HepG 2,2,15 cells can be quantified by qPCR and ELISA, and the effects of compounds on viral replication and HBsAg secretion can be detected.
HepG 2,2,15 cells were inoculated with 8,000 per cell to 96-well cell culture plates in duplicate, and were cultured for 3 days until the cells grew to full-hole. Cells were treated with 4-fold serial dilutions of compounds for 10 days, and were given once every other day. The final concentration of DMSO in all pores was 0.5% and DMSO was used as a drug-free control. The supernatant was collected for quantitative detection of HBsAg on day 11.
The level of HBsAg secreted by the cells after treatment of the compound was detected by ELISA method, and the method used a hepatitis B surface antigen diagnostic kit (Shanghai Kehua Biotech Co., Ltd. S10910113). 25 μL of the supernatant to be assayed (PBS was diluted to 75 μL) was added to per well in the ELISA plate, and the kit positive control and negative control were set. The ELIS A plate was blocked with a cover paper and incubated at 37° C. for 60 minutes. The ELISA plate was taken out, and the cover paper was teared off, and 50 μL of enzyme conjugate was added to each well. The ELISA plate was oscillated on the shaker for 10 seconds, blocked with a cover paper and incubated at 37° C. for 30 minutes. The ELISA plate was taken out, the cover paper was teared off, and the ELISA plate was washed 5 times: each time the liquid in the hole was discarded, and the washing liquid was filled into the holes, left to stand for 60 seconds, dried, and the liquid residue was patted to dry on the absorbent paper. A freshly prepared mixture of Developer A and Developer B was added to all wells immediately after washing: 100 μL per well. The ELISA plate was oscillated on the shaker for 10 seconds, blocked with a cover paper and incubated at 37° C. for 30 minutes. 50 μL of stop solution was added to all wells. Absorbance was read on the Envision plate reader at a wavelength of 450 nm.
Concentration-HBsAg OD450 was processed using Graphpad Prism 5 software, and IC50 of compounds inhibiting against HBsAg secretion was calculated by four-parameter nonlinear regression model.

Another data set has as its system HBV DNA replication. Nature of the data set: Inhibition experiment on HBV virus replication (HepG 2,2,15 cells, supernatant HBV DNA by qPCR). The class given is cell-based. The settings on record: Hepatitis B virus, HepG2.2.15, 10 days treatment, supernatant HBV DNA on day 11.
Description: as §1
HepG 2,2,15 cells were inoculated with 8,000 per cell to 96-well cell culture plates in duplicate, and were cultured for 3 days until the cells grew to full-hole. Cells were treated with 4-fold serial dilutions of compounds for 10 days, and were given once every other day. The final concentration of DMSO in all pores was 0.5% and DMSO was used as a drug-free control. The supernatant was collected for quantitative detection of HBV DNA on day 11.
Viral genomic DNA was detected by qPCR method, and HBV primers were as follows: […]
The SYBR Premix Ex Taq D-Takara DRR081S kit was used, and 1 μL of cell culture supernatant was used as a template. A standard curve was made using a plasmid containing the HBV genome, and the viral copy number was calculated using the standard curve. Concentration-virus copy number was processed using Graphpad Prism 5 software, and IC50 of compounds inhibiting virus replication was calculated by four-parameter nonlinear regression model.

Data set [1] in a line: PK test experiments in beagle dogs. In kind it is in vivo. As to conditions: for AUC(0-inf) / AUC(0-t) / Cmax / clearance: male, dog, plasma. The protocol:
The PK test in vivo of the compound of the present invention in beagle dogs (body weight 10-12 kg, male, age 10-12 months, 3 per group with oral administration, 3 per group with intravenous injection) The beagle dog was […] After administration, venous blood was collected at time points (0.083, 0.25, 0.5, 1, 2, 4, 6, 8 and 24 hours) and collected in an anticoagulation tube to which EDTA-K2 was added. Plasma samples were extracted by liquid-liquid extraction and quantitatively analyzed by multiple reaction ion monitoring (MRM) on a triple quadrupole tandem mass spectrometer. Pharmacokinetic parameters were calculated using a noncompartmental method by WinNonLin 6.3 software.

Data set [2] is described as follows: PK test experiments in SD rats. Further details: VSS: unit not given here. The class given is in vivo. As for the experimental part: The PK test in vivo of the compound of the present invention in SD rats (body weight 200-250 g, male, age 2-3 months, 3 per group with oral administration, 3 per group with intravenous injection) The SD rat was administered orally with 2.5 mg/kg or 5 mg/kg of the compound tested or intravenously injected with 0.5 mg/kg or 1 mg/kg of the compound tested. After administration, venous blood was collected at time points (0.083, 0.25, 0.5, 1, 2, 5, 7 and 24 hours) and collected in an anticoagulation tube to which EDTA-K2 was added. Plasma samples were extracted by liquid-liquid extraction and quantitatively analyzed by multiple reaction ion monitoring (MRM) on a triple quadrupole tandem mass spectrometer. Pharmacokinetic parameters were calculated using a noncompartmental method by WinNonLin 6.3 software.

As to `CC(C)N1Cc2cc(OCCC3CC3)c3c(c2-c2cc(=O)c(C(=O)O)cn21)CCO3` [Example 15, 4-(2-Cyclopropylethoxy)-7-isopropyl-11-oxo-2,6,7,11-tetrahydro-1H-furo [2,3-h]pyrido[2,1-a]phthalazine-10-carboxylic Acid], the IC50 in the data set on HBsAg secretion was determined as 3.13 nM; in the data set on HBV DNA replication, 1.81 nM. The VSS in data set [1] (IV, 0.5 mg/kg) was 0.23 kg⁻¹; in data set [2] (IV, 1 mg/kg), 0.9. The F came out at 102.2% in data set [1] (PO, 2.5 mg/kg) and 157.9% in data set [2] (PO, 5 mg/kg). Moreover, the AUC(0-inf) in data set [1] (IV, 0.5 mg/kg) turned out to be 12200 ng·h/mL; in data set [1] (PO, 2.5 mg/kg), 62400 ng·h/mL; in data set [2] (male, rat, plasma, IV, 1 mg/kg) it was 2280 ng·h/mL; in data set [2] (male, rat, plasma, PO, 5 mg/kg), 17800 ng·h/mL. Besides, the AUC(0-t) in data set [1] (IV, 0.5 mg/kg) is 11900 ng·h/mL; in data set [1] (PO, 2.5 mg/kg), 60500 ng·h/mL; in data set [2] (male, rat, plasma, IV, 1 mg/kg), 2140 ng·h/mL; in data set [2] (male, rat, plasma, PO, 5 mg/kg), 17700 ng·h/mL. Further, the Cmax in data set [1] (IV, 0.5 mg/kg) is 2010 ng/mL; in data set [1] (PO, 2.5 mg/kg) it was 7090 ng/mL; in data set [2] (male, rat, plasma, IV, 1 mg/kg), 1500 ng/mL; in data set [2] (male, rat, plasma, PO, 5 mg/kg) it was 2170 ng/mL. Moreover, the clearance amounted to 0.69 mL/min/kg in data set [1] (IV, 0.5 mg/kg) and 7.32 mL/min/kg in data set [2] (male, rat, plasma, IV, 1 mg/kg).

Take `CC(C)N1Cc2cc(-c3cnn(C(F)F)c3)c3c(c2-c2cc(=O)c(C(=O)O)cn21)CCO3` [Example 43, 4-(1-(Difluoromethyl)-1H-pyrazol-4-yl)-7-isopropyl-11-oxo-2,6,7,11-tetrahydro-1H-furo[2,3-h]pyrido[2,1-a]phthalazine-10-carboxylic Acid]: in the data set on HBsAg secretion, the IC50 came to 0.98 nM. For the same molecule, in the data set on HBV DNA replication, the IC50 is 1.85 nM. In data set [1] (IV, 0.5 mg/kg), this molecule came in with a VSS of 0.48 kg⁻¹, an AUC(0-inf) of 9990 ng·h/mL, an AUC(0-t) of 9030 ng·h/mL and a Cmax of 1080 ng/mL. Also, the clearance in data set [1] (IV, 0.5 mg/kg) was 0.83 mL/min/kg. For the same molecule, in data set [1] (PO, 2.5 mg/kg), the F is 100.7%, the area under the curve AUC(0-inf) was 49300 ng·h/mL, the AUC(0-t) turned out to be 45500 ng·h/mL and the Cmax is 5770 ng/mL.
